Here are results for 40 compounds from ChEMBL document CHEMBL1147667, “Synthesis and structure-activity relationship study of antidiabetic penta-O-galloyl-D-glucopyranose and its analogues” (2006).

In the assay the test system is 3T3-L1. Put plainly: [1-3H]-2-deoxy-D-glucose uptake in 3T3 L1 adipocytes. On the set-up: reference not given here. It is filed as functional, Mus musculus.
The compound `O=C(OC[C@H]1O[C@@H](OC(=O)c2cc(O)cc(O)c2)[C@H](OC(=O)c2cc(O)cc(O)c2)[C@@H](OC(=O)c2cc(O)cc(O)c2)[C@@H]1OC(=O)c1cc(O)cc(O)c1)c1cc(O)cc(O)c1` returned an Activity of 30 Bq.

Regarding `O=C(O[C@H]1O[C@H](CO)[C@@H](OC(=O)c2cc(O)c(O)c(O)c2)[C@H](OC(=O)c2cc(O)c(O)c(O)c2)[C@H]1OC(=O)c1cc(O)c(O)c(O)c1)c1cc(O)c(O)c(O)c1`, the Activity is recorded as 143 Bq. In the case of `O=C(O[C@H]1O[C@H](CCl)[C@@H](OC(=O)c2cc(O)c(O)c(O)c2)[C@H](OC(=O)c2cc(O)c(O)c(O)c2)[C@H]1OC(=O)c1cc(O)c(O)c(O)c1)c1cc(O)c(O)c(O)c1` it was 181 Bq; in that of `O=C(OC[C@H]1O[C@H](OC(=O)c2cc(O)c(O)c(O)c2)[C@H](OC(=O)c2cc(O)c(O)c(O)c2)[C@@H](OC(=O)c2cc(O)c(O)c(O)c2)[C@@H]1OC(=O)c1cc(O)c(O)c(O)c1)c1cc(O)c(O)c(O)c1`, 145 Bq. Compound `O=C(OC[C@H]1O[C@H](OC(=O)c2cc(O)cc(O)c2)[C@H](OC(=O)c2cc(O)cc(O)c2)[C@@H](OC(=O)c2cc(O)cc(O)c2)[C@@H]1OC(=O)c1cc(O)cc(O)c1)c1cc(O)cc(O)c1` gave an Activity of 16 Bq. In the case of `O=C(OC[C@H]1O[C@@H](OC(=O)c2cc(O)c(O)c(O)c2)[C@H](OC(=O)c2cc(O)c(O)c(O)c2)[C@@H](OC(=O)c2cc(O)c(O)c(O)c2)[C@H]1OC(=O)c1cc(O)c(O)c(O)c1)c1cc(O)c(O)c(O)c1` it was 19 Bq. As for `O=C(OC[C@H]1O[C@@H](OC(=O)c2ccc(O)cc2)[C@H](OC(=O)c2ccc(O)cc2)[C@@H](OC(=O)c2ccc(O)cc2)[C@@H]1OC(=O)c1ccc(O)cc1)c1ccc(O)cc1`, the figure is 27 Bq. As for `O=C(OC[C@H]1O[C@@H](OC(=O)c2cc(O)c(O)c(O)c2)[C@H](OC(=O)c2cc(O)c(O)c(O)c2)[C@H](OC(=O)c2cc(O)c(O)c(O)c2)[C@@H]1OC(=O)c1cc(O)c(O)c(O)c1)c1cc(O)c(O)c(O)c1`, the figure is 34 Bq; as for `C[C@H]1O[C@@H](OC(=O)c2cc(O)c(O)c(O)c2)[C@H](OC(=O)c2cc(O)c(O)c(O)c2)[C@@H](OC(=O)c2cc(O)c(O)c(O)c2)[C@@H]1OC(=O)c1cc(O)c(O)c(O)c1`, 15 Bq. `O=C(OC[C@H]1O[C@H](OC(=O)c2cc(O)c(O)c(O)c2)C[C@@H](OC(=O)c2cc(O)c(O)c(O)c2)[C@@H]1OC(=O)c1cc(O)c(O)c(O)c1)c1cc(O)c(O)c(O)c1` registered an Activity of 29 Bq.

In turn, `O=C(OC[C@@H]1C[C@H](OC(=O)c2cc(O)c(O)c(O)c2)[C@@H](OC(=O)c2cc(O)c(O)c(O)c2)[C@H](OC(=O)c2cc(O)c(O)c(O)c2)O1)c1cc(O)c(O)c(O)c1` registered an Activity of 30 Bq. In the case of `O=C(OC[C@H]1O[C@@H](OC(=O)c2cc(O)c(O)c(O)c2)C[C@@H](OC(=O)c2cc(O)c(O)c(O)c2)[C@@H]1OC(=O)c1cc(O)c(O)c(O)c1)c1cc(O)c(O)c(O)c1`, the Activity amounted to 15 Bq. For `O=C(O[C@@H]1OC[C@@H](OC(=O)c2cc(O)c(O)c(O)c2)[C@H](OC(=O)c2cc(O)c(O)c(O)c2)[C@@H]1OC(=O)c1cc(O)c(O)c(O)c1)c1cc(O)c(O)c(O)c1`, the Activity is 7 Bq. The compound `O=C(OC[C@H]1O[C@H](OC(=O)c2ccc(O)c(O)c2)[C@H](OC(=O)c2ccc(O)c(O)c2)[C@@H](OC(=O)c2ccc(O)c(O)c2)[C@@H]1OC(=O)c1ccc(O)c(O)c1)c1ccc(O)c(O)c1` had an Activity of 10 Bq. As for `O=C(OC[C@H]1O[C@H](OC(=O)c2cc(O)c(O)c(O)c2)[C@H](OC(=O)c2cc(O)c(O)c(O)c2)[C@H](OC(=O)c2cc(O)c(O)c(O)c2)[C@@H]1OC(=O)c1cc(O)c(O)c(O)c1)c1cc(O)c(O)c(O)c1`, the figure is 23 Bq.

As to `O=C(OC[C@H]1O[C@@H](OC(=O)c2cc(O)c(O)c(O)c2)[C@@H](OC(=O)c2cc(O)c(O)c(O)c2)[C@@H](OC(=O)c2cc(O)c(O)c(O)c2)[C@@H]1OC(=O)c1cc(O)c(O)c(O)c1)c1cc(O)c(O)c(O)c1`, the Activity amounted to 19 Bq. `CC(=O)OC[C@H]1O[C@H](OC(C)=O)[C@H](OC(C)=O)[C@@H](OC(C)=O)[C@@H]1OC(C)=O`: the Activity was found to be 31 Bq. As for `O=C(O[C@H]1OC[C@@H](OC(=O)c2cc(O)c(O)c(O)c2)[C@H](OC(=O)c2cc(O)c(O)c(O)c2)[C@H]1OC(=O)c1cc(O)c(O)c(O)c1)c1cc(O)c(O)c(O)c1`, the figure is 124 Bq; as for `O=C(O[C@H]1OC[C@@H](OC(=O)c2cc(O)c(O)c(O)c2)[C@H](OC(=O)c2cc(O)c(O)c(O)c2)[C@@H]1OC(=O)c1cc(O)c(O)c(O)c1)c1cc(O)c(O)c(O)c1`, 21 Bq. As for `O=C(OC[C@H]1O[C@@H](OC(=O)c2ccc(O)c(O)c2)[C@H](OC(=O)c2ccc(O)c(O)c2)[C@@H](OC(=O)c2ccc(O)c(O)c2)[C@@H]1OC(=O)c1ccc(O)c(O)c1)c1ccc(O)c(O)c1`, the figure is 20 Bq. As for `O=C(OC[C@H]1O[C@H](OC(=O)c2ccccc2)[C@H](OC(=O)c2ccccc2)[C@@H](OC(=O)c2ccccc2)[C@@H]1OC(=O)c1ccccc1)c1ccccc1`, the figure is 34 Bq; as for `O=C(O[C@@H]1OC[C@@H](OC(=O)c2cc(O)c(O)c(O)c2)[C@H](OC(=O)c2cc(O)c(O)c(O)c2)[C@H]1OC(=O)c1cc(O)c(O)c(O)c1)c1cc(O)c(O)c(O)c1`, 21 Bq. The compound `O=C(OC[C@@H]1C[C@H](OC(=O)c2cc(O)c(O)c(O)c2)[C@@H](OC(=O)c2cc(O)c(O)c(O)c2)[C@@H](OC(=O)c2cc(O)c(O)c(O)c2)O1)c1cc(O)c(O)c(O)c1` displayed an Activity of 28 Bq. In the case of `O=C(OC[C@H]1OC[C@H](OC(=O)c2cc(O)c(O)c(O)c2)[C@@H](OC(=O)c2cc(O)c(O)c(O)c2)[C@@H]1OC(=O)c1cc(O)c(O)c(O)c1)c1cc(O)c(O)c(O)c1` it was 5 Bq; in that of `O=C(OC[C@H]1O[C@H](OC(=O)c2ccc(O)cc2)[C@H](OC(=O)c2ccc(O)cc2)[C@@H](OC(=O)c2ccc(O)cc2)[C@@H]1OC(=O)c1ccc(O)cc1)c1ccc(O)cc1`, 30 Bq.

Regarding `O=C(O[C@H]1OC[C@@H](OC(=O)c2cc(O)c(O)c(O)c2)[C@@H](OC(=O)c2cc(O)c(O)c(O)c2)[C@H]1OC(=O)c1cc(O)c(O)c(O)c1)c1cc(O)c(O)c(O)c1`, the Activity came to 10 Bq. Regarding `C[C@H]1O[C@H](OC(=O)c2cc(O)c(O)c(O)c2)[C@H](OC(=O)c2cc(O)c(O)c(O)c2)[C@@H](OC(=O)c2cc(O)c(O)c(O)c2)[C@@H]1OC(=O)c1cc(O)c(O)c(O)c1`, the Activity was 115 Bq. As for `O=C(OC[C@H]1O[C@H](OC(=O)c2cc(O)c(O)c(O)c2)[C@@H](OC(=O)c2cc(O)c(O)c(O)c2)[C@@H](OC(=O)c2cc(O)c(O)c(O)c2)[C@@H]1OC(=O)c1cc(O)c(O)c(O)c1)c1cc(O)c(O)c(O)c1`, the figure is 20 Bq.

`O=C(OC[C@H]1O[C@H](OC(=O)c2cc(O)c(O)c(O)c2)[C@H](OC(=O)c2cc(O)c(O)c(O)c2)C[C@@H]1OC(=O)c1cc(O)c(O)c(O)c1)c1cc(O)c(O)c(O)c1` showed an Activity of 11 Bq.

As to `O=C(OC[C@H]1O[C@@H](OC(=O)c2cc(O)c(O)c(O)c2)[C@H](OC(=O)c2cc(O)c(O)c(O)c2)C[C@@H]1OC(=O)c1cc(O)c(O)c(O)c1)c1cc(O)c(O)c(O)c1`, the Activity was found to be 7 Bq. As for `O=C(O[C@@H]1OC[C@@H](OC(=O)c2cc(O)c(O)c(O)c2)[C@@H](OC(=O)c2cc(O)c(O)c(O)c2)[C@H]1OC(=O)c1cc(O)c(O)c(O)c1)c1cc(O)c(O)c(O)c1`, the figure is 12 Bq; as for `OC[C@H]1O[C@H](O)[C@H](O)[C@@H](O)[C@@H]1O`, 34 Bq.

With `O=C(OC[C@H]1O[C@H](OC(=O)c2cc(O)c(O)c(O)c2)[C@H](OC(=O)c2cc(O)c(O)c(O)c2)[C@@H](OC(=O)c2cc(O)c(O)c(O)c2)[C@H]1OC(=O)c1cc(O)c(O)c(O)c1)c1cc(O)c(O)c(O)c1`, the Activity was 22 Bq.

With `CC(=O)OC[C@H]1O[C@@H](OC(C)=O)[C@H](OC(C)=O)[C@@H](OC(C)=O)[C@@H]1OC(C)=O`, the Activity turned out to be 24 Bq. In turn, `O=C(OC[C@H]1OC(OC(=O)c2cc(O)c(O)c(O)c2)[C@H](OC(=O)c2cc(O)c(O)c(O)c2)[C@@H](OC(=O)c2cc(O)c(O)c(O)c2)[C@@H]1OC(=O)c1cc(O)c(O)c(O)c1)c1cc(O)c(O)c(O)c1` (single isomer, unassigned) [PENTAGALLOYL GLUCOSE] had an Activity of 107 Bq. In the case of `O=C(OC1OC[C@H](OC(=O)c2cc(O)c(O)c(O)c2)[C@H](OC(=O)c2cc(O)c(O)c(O)c2)[C@H]1OC(=O)c1cc(O)c(O)c(O)c1)c1cc(O)c(O)c(O)c1` (single isomer, unassigned; 63) it was 23 Bq; in that of `O=C(OC1OC[C@H](OC(=O)c2cc(O)c(O)c(O)c2)[C@H](OC(=O)c2cc(O)c(O)c(O)c2)[C@H]1OC(=O)c1cc(O)c(O)c(O)c1)c1cc(O)c(O)c(O)c1` (single isomer, unassigned; 65), 14 Bq; in that of `O=c1oc2c(O)c(O)cc3c(=O)oc4c(O)c(O)cc1c4c23` [ELLAGIC ACID], 27 Bq.

As to `COC(=O)c1cc(O)c(O)c(O)c1` [GALLIC ACID METHYL ESTER], the Activity is reported as 20 Bq. In the case of `O=C(O)c1cc(O)c(O)c(O)c1` [GALLIC ACID] it was 31 Bq.
